Test results as given in patent US20240239784A1, “INDOLE COMPOUNDS AND METHODS OF USE” (GENZYME CORPORATION, priority 2021, published 2024).

Test system: NBD1
Experiment: Aggregation analysis of NBD1 thermal stability by differential static light scattering (DSLS)
Assay type: binding, Human
Conditions: compound at 100 μM; ΔTagg versus DMSO control
Method: Purified recombinant NBD1 was produced using previously described methods (A. Schmidt, J. L. Mendoza, P. J. Thomas (2011) Biochemical and Biophysical Approaches to Probe CFTR Structure (365-376) M. D. Amaral, K. Kunzelmann (eds.), Cysic Fibrosis, Methods in Molecular Biology 741, Springer Science+Business Media). The effect of test compounds on thermal stability of NBD1 was evaluated by differential static light scattering (DSLS) using the Harbinger Stargazer-384 instrument (Epiphyte Three, Toronto, Canada). Test compounds were dissolved and diluted to desired concentrations in 100% DMSO. The compounds or DMSO controls (100 nL) were stamped into wells of a […] low volume optical plate (Corning Inc., Corning, NY) using the Echo 555 acoustic liquid handler (Labcyte Inc., San Jose, CA).
NBD1 protein was diluted to 0.2 mg/ml in S200 buffer (50 mM Tris-HCl, 150 mM NaCl, 5 mM MgCl2, 2 mM ATP, 2 mM DTT, pH7.6) containing 1% glycerol. 10 uL of protein solution was aliquoted into the 384-well plate harboring the test compounds and 10 uL mineral oil was overlayed onto the protein solution, using the epMotion robotic liquid handler (Eppendorf North America, Hauppauge, NY). After placing into the Stargazer instrument, the plate was heated at 1° C. per minute to 70° C. Images were captured from 25° C. to 70° C. every 0.5° C. At the end of the experiment run, instrument software integrated image files and analyzed data automatically. A […] regression curve was generated for each well, representing the increase in light scattering over time. A temperature of aggregation (Tagg) was calculated based on the inflection point of the curve. To better compare data across experiments the average Tagg for DMSO control wells was calculated and subtracted from values for wells containing compounds to obtain a “ΔTagg” value. These ΔTagg values reflect stabilizing efficacy of the compounds.

SMILES: CC(O)(c1ccccc1)c1cnc(-c2cccc(Oc3ccc4[nH]ccc4c3S(C)(=O)=O)c2)[nH]1 (racemic) [Example 63, 1-(2-(3-((4-(methylsulfonyl)-1H-indol-5-yl)oxy)phenyl)-1H-imidazol-5-yl)-1-phenylethan-1-ol]
- DSLS NBD1/3D Human Stability delta-T (° C.) @ 100 (μM): A (T ≥8° C.)

SMILES: OC(c1cccc(-c2nnc(Cc3ccccc3)[nH]2)c1)c1ccc2[nH]ccc2c1 (single isomer, unassigned) [Example 35A, (3-(5-Benzyl-4H-1,2,4-triazol-3-yl)phenyl)(1H-indol-5-yl)methanol]
- DSLS NBD1/3D Human Stability delta-T (° C.) @ 100 (μM): B (4-8° C.)

SMILES: OC(c1cccc(-c2nnc(Cc3ccccc3)[nH]2)c1)c1ccc2[nH]ccc2c1 (single isomer, unassigned) [Example 35B, (3-(5-Benzyl-4H-1,2,4-triazol-3-yl)phenyl)(1H-indol-5-yl)methanol]
- DSLS NBD1/3D Human Stability delta-T (° C.) @ 100 (μM): C (≤4° C.)

SMILES: CC(O)(c1ccccc1)c1cnc(-c2cccc(Oc3ccc4[nH]ccc4c3S(C)(=O)=O)c2)[nH]1 (single isomer, unassigned) [Example 63A, 1-(2-(3-((4-(methylsulfonyl)-1H-indol-5-yl)oxy)phenyl)-1H-imidazol-5-yl)-1-phenylethan-1-ol]
- DSLS NBD1/3D Human Stability delta-T (° C.) @ 100 (μM): A (T ≥8° C.)

SMILES: CC(O)(c1ccccc1)c1cnc(-c2cccc(Oc3ccc4[nH]ccc4c3S(C)(=O)=O)c2)[nH]1 (single isomer, unassigned) [Example 63B, 1-(2-(3-((4-(methylsulfonyl)-1H-indol-5-yl)oxy)phenyl)-1H-imidazol-5-yl)-1-phenylethan-1-ol]
- DSLS NBD1/3D Human Stability delta-T (° C.) @ 100 (μM): B (4-8° C.)

SMILES: CC(O)(c1ccccc1)c1c[nH]c(-c2cc(Oc3c(F)cc4[nH]ccc4c3CC3SC(=O)NC3=O)ccc2F)n1 (stereo not shown) [Example 1, 5-((6-Fluoro-5-(4-fluoro-3-(4-(1-hydroxy-1-phenylethyl)-1H-imidazol-2-yl)phenoxy)-1H-indol-4-yl)methyl)thiazolidine-2,4-dione]
- DSLS NBD1/3D Human Stability delta-T (° C.) @ 100 (μM): A (T ≥8° C.)

SMILES: CC(c1ccccc1)c1c[nH]c(-c2cc(Oc3c(F)cc4[nH]ccc4c3CC3SC(=O)NC3=O)ccc2F)n1 (stereo not shown) [Example 2, 5-((6-Fluoro-5-(4-fluoro-3-(4-(1-phenylethyl)-1H-imidazol-2-yl)phenoxy)-1H-indol-4-yl)methyl)thiazolidine-2,4-dione]
- DSLS NBD1/3D Human Stability delta-T (° C.) @ 100 (μM): B (4-8° C.)

SMILES: CC(O)(c1ccccc1)c1cnc(-c2cccc(Oc3c(F)cc4[nH]ccc4c3C=C3SC(=O)NC3=O)c2)[nH]1 (stereo not shown) [Example 3, 5-((6-fluoro-5-(3-(5-(1-hydroxy-1-phenylethyl)-1H-imidazol-2-yl)phenoxy)-1H-indol-4-yl)methylene)thiazolidine-2,4-dione]
- DSLS NBD1/3D Human Stability delta-T (° C.) @ 100 (μM): A (T ≥8° C.)

SMILES: CC(C)(c1ccccc1)c1cnc(-c2cc(Oc3c(F)cc4[nH]ccc4c3CC(=O)O)ccc2F)[nH]1 [Example 4, 2-(6-Fluoro-5-(4-fluoro-3-(5-(2-phenylpropan-2-yl)-1H-imidazol-2-yl)phenoxy)-1H-indol-4-yl)acetic acid]
- DSLS NBD1/3D Human Stability delta-T (° C.) @ 100 (μM): A (T ≥8° C.)

SMILES: CC(O)(c1ccccc1)c1cnc(-c2cccc(Oc3c(F)cc4[nH]ccc4c3S(C)(=O)=O)c2)[nH]1 (stereo not shown) [Example 5, 1-(2-(3-((6-Fluoro-4-(methylsulfonyl)-1H-indol-5-yl)oxy)phenyl)-1H-imidazol-5-yl)-1-phenylethan-1-ol]
- DSLS NBD1/3D Human Stability delta-T (° C.) @ 100 (μM): A (T ≥8° C.)

SMILES: CC(O)(c1ccccc1)c1c[nH]c(-c2cc(Oc3c(F)cc4[nH]ccc4c3S(C)(=N)=O)ccc2F)n1 (stereo not shown) [Example 6, (6-fluoro-5-(4-fluoro-3-(4-(1-hydroxy-1-phenylethyl)-1H-imidazol-2-y1)phenoxy)-1H-indol-4-y1)(imino)(methyl)-16-sulfanone]
- DSLS NBD1/3D Human Stability delta-T (° C.) @ 100 (μM): A (T ≥8° C.)

SMILES: COC(=O)c1c(Oc2cccc(-c3ncc(C(C)(O)c4ccccc4)[nH]3)c2)c(F)cc2[nH]ccc12 (stereo not shown) [Example 7, Methyl 6-fluoro-5-(3-(5-(1-hydroxy-1-phenylethyl)-1H-imidazol-2-yl)phenoxy)-1H-indole-4-carboxylate]
- DSLS NBD1/3D Human Stability delta-T (° C.) @ 100 (μM): B (4-8° C.)

SMILES: CC(O)(c1ccccc1)c1cnc(-c2cccc(Oc3c(F)cc4[nH]ccc4c3CO)c2)[nH]1 (stereo not shown) [Example 8, 1-(2-(3-((6-Fluoro-4-(hydroxymethyl)-1H-indol-5-yl)oxy)phenyl)-1H-imidazol-5-yl)-1-phenylethan-1-ol]
- DSLS NBD1/3D Human Stability delta-T (° C.) @ 100 (μM): A (T ≥8° C.)

SMILES: CC(O)(c1ccccc1)c1cnc(-c2cccc(Oc3c(F)cc4[nH]ccc4c3C(N)=O)c2)[nH]1 (stereo not shown) [Example 9, 6-Fluoro-5-(3-(5-(1-hydroxy-1-phenylethyl)-1H-imidazol-2-yl)phenoxy)-1H-indole-4-carboxamide]
- DSLS NBD1/3D Human Stability delta-T (° C.) @ 100 (μM): A (T ≥8° C.)

SMILES: CC(C)(c1ccccc1)c1cnc(-c2cc(Oc3c(F)cc4[nH]ccc4c3CCC(=O)O)ccc2F)[nH]1 [Example 10, 3-(6-Fluoro-5-(4-fluoro-3-(5-(2-phenylpropan-2-yl)-1H-imidazol-2-yl)phenoxy)-1H-indol-4-yl)propanoic acid]
- DSLS NBD1/3D Human Stability delta-T (° C.) @ 100 (μM): A (T ≥8° C.)

SMILES: O=C(O)Cc1c(Oc2cccc(-c3nnc(Cc4ccccc4)[nH]3)c2)ccc2[nH]ccc12 [Example 11, 2-(5-(3-(5-Benzyl-4H-1,2,4-triazol-3-yl)phenoxy)-1H-indol-4-yl)acetic acid]
- DSLS NBD1/3D Human Stability delta-T (° C.) @ 100 (μM): B (4-8° C.)

SMILES: O=C(Cc1c(Oc2cccc(-c3nnc(Cc4ccccc4)[nH]3)c2)ccc2[nH]ccc12)NS(=O)(=O)C1CC1 [Example 12, 2-(5-(3-(5-Benzyl-4H-1,2,4-triazol-3-yl)phenoxy)-1H-indol-4-yl)-N-(cyclopropylsulfonyl)acetamide]
- DSLS NBD1/3D Human Stability delta-T (° C.) @ 100 (μM): A (T ≥8° C.)

SMILES: Cc1c(Oc2ccc(F)c(-c3ncc(C(C)(CCC(=O)O)c4ccccc4)[nH]3)c2)c(F)cc2[nH]ccc12 (stereo not shown) [Example 13, 4-(2-(2-Fluoro-5-((6-fluoro-4-methyl-1H-indol-5-yl)oxy)phenyl)-1H-imidazol-5-yl)-4-phenylpentanoic acid]
- DSLS NBD1/3D Human Stability delta-T (° C.) @ 100 (μM): B (4-8° C.)

SMILES: CS(=O)(=O)c1c(Oc2cccc(-c3ncc(C(O)c4ccccc4)[nH]3)c2)c(F)cc2[nH]ccc12 (stereo not shown) [Example 14, (2-(3-((6-Fluoro-4-(methylsulfonyl)-1H-indol-5-yl)oxy)phenyl)-1H-imidazol-5-yl)(phenyl)methanol]
- DSLS NBD1/3D Human Stability delta-T (° C.) @ 100 (μM): A (T ≥8° C.)

SMILES: CS(=O)(=O)c1c(Oc2cccc(-c3ncc(C(N)c4ccccc4)[nH]3)c2)c(F)cc2[nH]ccc12 (stereo not shown) [Example 15, (2-(3-((6-Fluoro-4-(methylsulfonyl)-1H-indol-5-yl)oxy)phenyl)-1H-imidazol-5-yl)(phenyl)methanamine]
- DSLS NBD1/3D Human Stability delta-T (° C.) @ 100 (μM): A (T ≥8° C.)

SMILES: CC(O)(c1ccccc1)c1nnc(-c2cccc(Oc3ccc4[nH]ccc4n3)c2)[nH]1 (stereo not shown) [Example 16, 1-(5-(3-((1H-Pyrrolo[3,2-b]pyridin-5-yl)oxy)phenyl)-4H-1,2,4-triazol-3-yl)-1-phenylethan-1-ol]
- DSLS NBD1/3D Human Stability delta-T (° C.) @ 100 (μM): B (4-8° C.)

SMILES: NC(c1ccccc1)c1nnc(-c2cccc(Oc3ccc4[nH]ccc4n3)c2)[nH]1 (stereo not shown) [Example 17, (5-(3-((1H-Pyrrolo[3,2-b]pyridin-5-yl)oxy)phenyl)-4H-1,2,4-triazol-3-yl)(phenyl)methanamine]
- DSLS NBD1/3D Human Stability delta-T (° C.) @ 100 (μM): B (4-8° C.)

SMILES: CC(=O)NCc1c(Oc2cccc(-c3ncc(C(O)c4ccccc4)[nH]3)c2)ccc2[nH]ccc12 (stereo not shown) [Example 18, N-((5-(3-(5-(Hydroxy(phenyl)methyl)-1H-imidazol-2-yl)phenoxy)-1H-indol-4-yl)methyl)acetamide]
- DSLS NBD1/3D Human Stability delta-T (° C.) @ 100 (μM): A (T ≥8° C.)

SMILES: O=C(O)c1c(Oc2cccc(-c3nnc(Cc4ccccc4)[nH]3)c2)ccc2[nH]ccc12 [Example 19, 5-(3-(5-Benzyl-4H-1,2,4-triazol-3-yl)phenoxy)-1H-indole-4-carboxylic acid]
- DSLS NBD1/3D Human Stability delta-T (° C.) @ 100 (μM): B (4-8° C.)

SMILES: OCc1c(Oc2cccc(-c3nnc(Cc4ccccc4)[nH]3)c2)ccc2[nH]ccc12 [Example 20, (5-(3-(5-Benzyl-4H-1,2,4-triazol-3-yl)phenoxy)-1H-indol-4-yl)methanol]
- DSLS NBD1/3D Human Stability delta-T (° C.) @ 100 (μM): B (4-8° C.)

SMILES: CC(C)NCc1c(Oc2cccc(-c3nnc(Cc4ccccc4)[nH]3)c2)ccc2[nH]ccc12 [Example 21, N-((5-(3-(5-Benzyl-4H-1,2,4-triazol-3-yl)phenoxy)-1H-indol-4-yl)methyl)propan-2-amine 2,2,2-trifluoroacetate]
- DSLS NBD1/3D Human Stability delta-T (° C.) @ 100 (μM): B (4-8° C.)

SMILES: CNS(=O)(=O)c1c(Oc2ccc(F)c(-c3ncc(C(C)(O)c4ccccc4)[nH]3)c2)c(F)cc2[nH]ccc12 (stereo not shown) [Example 22, 6-Fluoro-5-(4-fluoro-3-(5-(1-hydroxy-1-phenylethyl)-1H-imidazol-2-yl)phenoxy)-N-methyl-1H-indole-4-sulfonamide]
- DSLS NBD1/3D Human Stability delta-T (° C.) @ 100 (μM): B (4-8° C.)

SMILES: OCc1c(Oc2cccc(-c3ncn(Cc4ccccc4)n3)c2)ccc2[nH]ccc12 [Example 23, (5-(3-(1-Benzyl-1H-1,2,4-triazol-3-yl)phenoxy)-1H-indol-4-yl)methanol]
- DSLS NBD1/3D Human Stability delta-T (° C.) @ 100 (μM): B (4-8° C.)
